# Data from PubChem BioAssay (NCI).
#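 Dose response: 5 concentrations. Exposure: 48 h. Format: 96-well plates. Endpoint: linear interpolation; highest concentration if not reached. TGI: total growth inhibition.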
# Columns and labels:
# Experiment in all cases: NCI-60 cell line screen, 48 h
# HT29 colon = tested on: HT29 colon
# KM12 colon = tested on: KM12 colon
# UACC-62 melanoma = tested on: UACC-62 melanoma
# DU-145 prostate = tested on: DU-145 prostate
# SN12C renal = tested on: SN12C renal
# OVCAR-8 ovarian = tested on: OVCAR-8 ovarian
# CCRF-CEM leukemia = tested on: CCRF-CEM leukemia
# A498 renal = tested on: A498 renal
# SK-MEL-5 melanoma = tested on: SK-MEL-5 melanoma
# A549 NSCLC = tested on: A549 NSCLC
# OVCAR-4 ovarian = tested on: OVCAR-4 ovarian
# PC-3 prostate = tested on: PC-3 prostate
# SF-295 CNS = tested on: SF-295 CNS
# CAKI-1 renal = tested on: CAKI-1 renal
# M14 melanoma = tested on: M14 melanoma
# IGROV1 ovarian = tested on: IGROV1 ovarian
# UO-31 renal = tested on: UO-31 renal
# K-562 leukemia = tested on: K-562 leukemia
# U251 CNS = tested on: U251 CNS
# LOX IMVI melanoma = tested on: LOX IMVI melanoma
# OVCAR-5 ovarian = tested on: OVCAR-5 ovarian
# SK-MEL-2 melanoma = tested on: SK-MEL-2 melanoma
# HCT-15 colon = tested on: HCT-15 colon
# NCI-H522 lung = tested on: NCI-H522 lung
# SK-OV-3 ovarian = tested on: SK-OV-3 ovarian
# SF-539 CNS = tested on: SF-539 CNS
# EKVX NSCLC = tested on: EKVX NSCLC
# SK-MEL-28 melanoma = tested on: SK-MEL-28 melanoma
# NCI-H226 lung = tested on: NCI-H226 lung
# COLO 205 colon = tested on: COLO 205 colon
# NCI-H23 lung = tested on: NCI-H23 lung
# SW-620 colon = tested on: SW-620 colon
# RXF 393 renal = tested on: RXF 393 renal
# HL-60(TB) leukemia = tested on: HL-60(TB) leukemia
# SF-268 CNS = tested on: SF-268 CNS
# MDA-MB-231 breast = tested on: MDA-MB-231 breast
# MALME-3M melanoma = tested on: MALME-3M melanoma
# NCI-H460 lung = tested on: NCI-H460 lung
# OVCAR-3 ovarian = tested on: OVCAR-3 ovarian
# MOLT-4 leukemia = tested on: MOLT-4 leukemia
# MCF7 breast = tested on: MCF7 breast
# 786-0 renal = tested on: 786-0 renal
# SNB-75 CNS = tested on: SNB-75 CNS
# NCI/ADR-RES ovarian = tested on: NCI/ADR-RES ovarian
# ACHN renal = tested on: ACHN renal
# UACC-257 melanoma = tested on: UACC-257 melanoma
# RPMI-8226 leukemia = tested on: RPMI-8226 leukemia
# HOP-62 NSCLC = tested on: HOP-62 NSCLC
# HOP-92 NSCLC = tested on: HOP-92 NSCLC
# MDA-MB-435 = tested on: MDA-MB-435
# HCT-116 colon = tested on: HCT-116 colon
# SNB-19 CNS = tested on: SNB-19 CNS
# MDA-N = tested on: MDA-N
# SR leukemia = tested on: SR leukemia
# TK-10 renal = tested on: TK-10 renal
# HS 578T breast = tested on: HS 578T breast
# HCC-2998 colon = tested on: HCC-2998 colon
# T-47D breast = tested on: T-47D breast
smiles,measurement,setting,value
CC(C)(C)N=c1n(C(C)(C)C)oc(=O)n1-c1ccccc1,TGI,HT29 colon,> 50 µM
same,TGI,KM12 colon,> 50 µM
same,TGI,UACC-62 melanoma,> 50 µM
same,TGI,DU-145 prostate,> 50 µM
same,TGI,SN12C renal,> 50 µM
same,TGI,OVCAR-8 ovarian,> 50 µM
same,TGI,CCRF-CEM leukemia,> 50 µM
same,TGI,A498 renal,> 50 µM
same,TGI,SK-MEL-5 melanoma,> 50 µM
same,TGI,A549 NSCLC,> 50 µM
same,TGI,OVCAR-4 ovarian,> 50 µM
same,TGI,PC-3 prostate,> 50 µM
same,TGI,SF-295 CNS,> 50 µM
same,TGI,CAKI-1 renal,> 50 µM
same,TGI,M14 melanoma,> 50 µM
same,TGI,IGROV1 ovarian,> 50 µM
same,TGI,UO-31 renal,> 50 µM
same,TGI,K-562 leukemia,> 50 µM
same,TGI,U251 CNS,> 50 µM
same,TGI,LOX IMVI melanoma,> 50 µM
same,TGI,OVCAR-5 ovarian,> 50 µM
same,TGI,SK-MEL-2 melanoma,> 50 µM
same,TGI,HCT-15 colon,> 50 µM
same,TGI,NCI-H522 lung,> 50 µM
same,TGI,SK-OV-3 ovarian,> 50 µM
same,TGI,SF-539 CNS,> 50 µM
same,TGI,EKVX NSCLC,> 50 µM
same,TGI,SK-MEL-28 melanoma,> 50 µM
same,TGI,NCI-H226 lung,> 50 µM
same,TGI,COLO 205 colon,> 50 µM
same,TGI,NCI-H23 lung,> 50 µM
same,TGI,SW-620 colon,> 50 µM
same,TGI,RXF 393 renal,> 50 µM
same,TGI,HL-60(TB) leukemia,> 50 µM
same,TGI,SF-268 CNS,> 50 µM
same,TGI,MDA-MB-231 breast,> 50 µM
same,TGI,MALME-3M melanoma,> 50 µM
same,TGI,NCI-H460 lung,> 50 µM
same,TGI,OVCAR-3 ovarian,> 50 µM
same,TGI,MOLT-4 leukemia,> 50 µM
same,TGI,MCF7 breast,> 50 µM
same,TGI,786-0 renal,> 50 µM
same,TGI,SNB-75 CNS,> 50 µM
same,TGI,NCI/ADR-RES ovarian,> 50 µM
same,TGI,ACHN renal,> 50 µM
same,TGI,UACC-257 melanoma,> 50 µM
same,TGI,RPMI-8226 leukemia,> 50 µM
same,TGI,HOP-62 NSCLC,> 50 µM
same,TGI,HOP-92 NSCLC,> 50 µM
same,TGI,MDA-MB-435,> 50 µM
same,TGI,HCT-116 colon,> 50 µM
same,TGI,SNB-19 CNS,> 50 µM
same,TGI,MDA-N,> 50 µM
same,TGI,SR leukemia,> 50 µM
same,TGI,TK-10 renal,> 50 µM
same,TGI,HS 578T breast,> 50 µM
c1ccc(CSC(SCc2ccccc2)c2ccc3c(c2)OCO3)cc1,TGI,HT29 colon,> 10 µM
same,TGI,HCC-2998 colon,> 10 µM
same,TGI,KM12 colon,> 10 µM
same,TGI,UACC-62 melanoma,> 10 µM
same,TGI,DU-145 prostate,> 10 µM
same,TGI,SN12C renal,> 10 µM
same,TGI,OVCAR-8 ovarian,> 10 µM
same,TGI,CCRF-CEM leukemia,> 10 µM
same,TGI,A498 renal,> 10 µM
same,TGI,SK-MEL-5 melanoma,> 10 µM
same,TGI,A549 NSCLC,> 10 µM
same,TGI,OVCAR-4 ovarian,> 10 µM
same,TGI,PC-3 prostate,> 10 µM
same,TGI,SF-295 CNS,> 10 µM
same,TGI,CAKI-1 renal,> 10 µM
same,TGI,T-47D breast,> 10 µM
same,TGI,M14 melanoma,> 10 µM
same,TGI,IGROV1 ovarian,> 10 µM
same,TGI,UO-31 renal,> 10 µM
same,TGI,K-562 leukemia,> 10 µM
same,TGI,U251 CNS,> 10 µM
same,TGI,LOX IMVI melanoma,> 10 µM
same,TGI,SK-MEL-2 melanoma,> 10 µM
same,TGI,HCT-15 colon,> 10 µM
same,TGI,NCI-H522 lung,> 10 µM
same,TGI,SK-OV-3 ovarian,> 10 µM
same,TGI,SF-539 CNS,> 10 µM
same,TGI,EKVX NSCLC,> 10 µM
same,TGI,SK-MEL-28 melanoma,> 10 µM
same,TGI,NCI-H226 lung,> 10 µM
same,TGI,COLO 205 colon,> 10 µM
same,TGI,NCI-H23 lung,> 10 µM
same,TGI,SW-620 colon,> 10 µM
same,TGI,RXF 393 renal,> 10 µM
same,TGI,HL-60(TB) leukemia,> 10 µM
same,TGI,SF-268 CNS,> 10 µM
same,TGI,MDA-MB-231 breast,> 10 µM
same,TGI,MALME-3M melanoma,> 10 µM
same,TGI,NCI-H460 lung,> 10 µM
same,TGI,OVCAR-3 ovarian,> 10 µM
same,TGI,MOLT-4 leukemia,> 10 µM
same,TGI,MCF7 breast,> 10 µM
same,TGI,786-0 renal,> 10 µM
same,TGI,SNB-75 CNS,> 10 µM
same,TGI,NCI/ADR-RES ovarian,> 10 µM
same,TGI,ACHN renal,> 10 µM
same,TGI,UACC-257 melanoma,> 10 µM
same,TGI,RPMI-8226 leukemia,> 10 µM
same,TGI,HOP-62 NSCLC,> 10 µM
same,TGI,HOP-92 NSCLC,> 10 µM
same,TGI,HCT-116 colon,> 10 µM
same,TGI,SNB-19 CNS,> 10 µM
same,TGI,MDA-N,> 10 µM
same,TGI,TK-10 renal,> 10 µM
same,TGI,HS 578T breast,> 10 µM
